The source of these data is paper PMC7064771, “Repurposed Drugs That Block the Gonococcus-Complement Receptor 3 Interaction Can Prevent and Cure Gonococcal Infection of Primary Human Cervical Epithelial Cells” (mBio, 2020).

“Also recorded” adds a separate entry of the source. Read-outs that look alike come from different tables or passages of the source.

What is called Kd is a measure of binding affinity in units of concentration.

Assay [1] has as its target T1, human rI-domain (Homo sapiens, UniProt P11215).
T1 construct: Recombinant human and mouse I-domain proteins were made and purified as previously described; made in house
The assay is described as follows: Surface plasmon resonance, immobilized human rI-domain. The assay is classed as binding. The protocol: (§1) SPR analyses were performed using a Biacore S200 system (GE Healthcare Life Sciences, Parramatta, NSW, Australia). Samples were analyzed at 25°C in phosphate-buffered saline (PBS) at a flow rate of 10 μl/min and by using single-cycle kinetics. Human rI-domain, mouse rI-domain, and human rCR3 were immobilized onto separate cells of a Series S CM5 sensor chip using an NHS capture kit (both from GE Healthcare Life Sciences) for purified pilin experiments. For experiments in which pilin-glycan-like structures were examined, human rI-domain and rCR3 were immobilized onto separate cells of a CM5 chip. A blank immobilization was used as a control/reference on all chips. MS11 wild-type and MS11 pglA pilin were serially diluted from 2 μM to 0.125 μM in PBS. Glycans (Dextra Laboratories, Reading, UK) (Table 2), resembling the gonococcal Gal(α1-3)diNAcBac pilin-linked glycan, were serially diluted from 2 μM to 0.0078 μM in PBS. Affinity data points were taken at 15 s after injection to avoid an artefactual signal resulting from bulk transport. SPR sensorgrams were analyzed using Biacore Evaluation software (GE Healthcare Life Sciences).

Assay [2] concerns the target T2, human rCR3 (integrin αMβ2) (Homo sapiens, UniProt P05107+P11215).
T2 construct: purchased R&D Systems
Put plainly: Surface plasmon resonance, immobilized human rCR3. The assay is classed as binding. The protocol: as §1
Background: In SPR one partner is held on a chip, and binding of the other changes the refractive index at the surface.

The target in assay [3] is T3, G2 peptide (Homo sapiens, UniProt P11215).
T3 construct: corresponds to amino acids Arg197 to Pro211 of human CD11b
Put plainly: SPR of glycans over immobilized biotin-AhxG2-streptavidin complex. The assay is classed as binding. The note with it: for KD, G2 Peptide: synthetic glycans over biotin-Ahx-labeled G2 peptide complexed with streptavidin, NCDI = no concentration-dependent interaction. The protocol:
To assess the kinetics of the selected peptides, biotinylated versions of each peptide were synthesized. This enabled immobilization via streptavidin onto Series S CM5 sensor chips. Purified biotin-AhxG2 (G2 peptide with a six-carbon spacer linked to biotin) (Table S1), was incubated with streptavidin (Sigma, Castle Hill, NSW, Australia) for 2 h on ice at a 12:1 molar ratio of peptide to protein. Unreacted peptide was removed using a 10-kDa-molecular-weight-cutoff size exclusion column (EMD Millipore, Bayswater, VIC, Australia). Semi-native SDS-PAGE analysis was used to confirm peptide binding to streptavidin. To this end, streptavidin-peptide complexes were added to nonreducing NuPAGE sample buffer (Life Technologies, Scoresby, VIC, Australia). To ensure that peptide-streptavidin complexes were not denatured, heat was not applied before loading onto SDS-polyacrylamide 4% to 12% gradient gels (Life Technologies). A streptavidin-biotin complex was used as a reference control for the molecular weight shift that could be attributed to the peptide. Serially diluted glycans (1 μM to 0.0625 μM) were flowed over sensor chips. Other aspects of SPR analysis were as described above.

For assay [4], the target named is T4, human rCR3 (integrin αMβ2) (Homo sapiens, UniProt P11215).
T4 construct: purchased R&D Systems
Put plainly: Surface plasmon resonance, immobilized human rCR3. The assay is classed as binding. The protocol:
as §1

Assay [5] concerns N. gonorrhoeae adherence to Pex cells. Put plainly: Fluorometric adherence assay, Pex cells. The assay is classed as cell-based, human. The note with it: 1-h infection with GFP-expressing N. gonorrhoeae, competitor added simultaneously. The protocol:
(§2) Fluorometric adherence assays were performed essentially as described previously ([36]). In brief, N. gonorrhoeae MS11 gfp was used to challenge (1 h) Pex or CHO cells simultaneously with peptide or drug competitor. Infected (devoid of peptide or drug) and uninfected (with peptide, drug, or dimethyl sulfoxide [DMSO] vehicle) control cell assays were treated in parallel with competitive peptide/drug inhibition assays. Fluorescence (485 nm excitation, 528 nm emission) intensity, corresponding to bacterial adherence, was recorded using a Synergy HT multimode microplate reader (BioTek Instruments, Winooski, VT, USA). Blank wells, devoid of Pex or CHO cells, were inoculated with bacteria and served as a control for nonspecific binding. Each assay was performed in triplicates on 3 separate occasions. Peptides used are described in Table S1. A nonparametric analysis of variance (ANOVA) was used to determine the statistical significance of the calculated mean of bacterial adherence.

The subject of assay [6] is N. gonorrhoeae adherence to CHO-CR3 cells. Put plainly: Fluorometric adherence assay, CHO-CR3 cells. The note with it: 1-h infection with GFP-expressing N. gonorrhoeae, competitor added simultaneously. The assay is classed as cell-based, Chinese hamster. The protocol:
as §2

Assay [7] has as its system N. gonorrhoeae adherence to CHO-neo cells. The assay is described as follows: Fluorometric adherence assay, CHO-neo cells. The assay is classed as cell-based, Chinese hamster. The note with it: 1-h infection; cells do not express CR3. The protocol:
as §2

Assay [8] has as its target T1, human rI-domain. Put plainly: Repurposed drug SPR against human CR3 I-domain (single-cycle kinetics). The note with it: 10 nM to 0.625 nM, read-out: KD, binding to human rI-domain. Here is the method: Human rI-domain was immobilized onto a CM5 sensor chip with a blank control flow cell as described above. A combination of two FDA-approved drug libraries, Microsource-CPOZ (2,400 drugs) and ML Drug (741 drugs), was purchased from Compounds Australia. […] A single-concentration injection screen (yes/no) binding assay was performed. Binding was determined based on the response unit shift (equal to the molecular weight-corrected response units of the positive-control glycan) of the stability of the binding phase of the dissociation cycle. […] For carbamazepine and methyldopa, saturation occurred between 1.6 nM and 8 nM, and so a new concentration range (10 nM to 0.625 nM) was tested. […] All SPR sensorgrams and result plots described above were analyzed with Biacore S200 evaluation software (GE Healthcare Life Sciences). A literature review was used to evaluate the remaining drugs for known long-term safety in humans and known therapeutic concentrations.

In assay [9] the target is T1, human rI-domain. The assay is described as follows: Direct competition SPR, drug versus N. gonorrhoeae MS11 pilin. The assay is classed as binding. The note with it: drug and pilin at 1 μM.
Assay [10] deals with N. gonorrhoeae infection of Pex cells. The protocol:
Infection studies were performed as previously described with modification using a multiplicity of infection of 100 ([44]). To establish infection before treatment, Pex cells were challenged with N. gonorrhoeae for 90 min. The infection medium was then removed, the cells were rinsed thrice, and fresh medium containing 0.1% DMSO (vehicle control), carbamazepine (100 pM to 100 μM), methyldopa (100 pM to 100 μM), or ceftriaxone (0.1 μg/ml or 0.5 μg/ml, positive control) was added. Infections then proceeded for an additional 24 h or 48 h, after which, the infection medium was removed. Pex cell monolayers were subsequently lysed, serial dilutions of the Pex cell lysates were plated, and viable gonococci were enumerated by counting CFU after 48 h of incubation (37°C, 5% CO2). For sequential infection assays, viable bacterial colonies that survived a treatment assay were harvested from the enumeration (CFU) plates and used to inoculate new Pex cell monolayers. For these sequential assays, each infection (the original infection or the infection with bacteria that had survived the original infection) proceeded for 24 h. Pex cells were then processed, and bacteria were enumerated, as described above. For all assays, the percentage of N. gonorrhoeae that survived carbamazepine, methyldopa, or ceftriaxone treatment was determined as a function of bacteria that survived DMSO treatment (set to 100%). All assays were performed in triplicates on 3 separate occasions. A nonparametric ANOVA was used to determine the statistical significance of bacterial survival.

Assay [11] relates to N. gonorrhoeae strains. The assay is described as follows: Well diffusion assay. The assay is classed as cell-based, Neisseria gonorrhoeae. The note with it: 100 pM to 100 μM in wells, overnight. Here is the method:
Well diffusion assays were performed essentially as described previously ([56]). Briefly, N. gonorrhoeae strains were spread uniformly across the surfaces of GC agar plates at a culture density of 10^7 bacteria per ml. Wells were then punctured within the agar surface to which carbamazepine or methyldopa (100 pM to 100 μM), 0.2 μg/ml ceftriaxone, 10 μg/ml ciprofloxacin, or 1% DMSO (vehicle control) was added. Following an overnight incubation (37°C, 5% CO2), inhibition of N. gonorrhoeae growth was measured as the diameter (in millimeters) of the area of clearing surrounding (and inclusive of) each well on each agar plate, i.e., the zone of inhibition (ZOI). For agar plates in which a ZOI was not visible, data were recorded as the diameter of the well (6 mm). Assays were performed in triplicates on 3 separate occasions. Statistical significance of data obtained was determined using a Student's t test.
In general terms: In agar diffusion tests the substance spreads into inoculated agar from a disc or well.

Where [12] appears, read: synthetic glycans, NCDI = no interaction at any concentration between 0.0078 μM and 2 μM, read-out: KD, rI-domain.
Setting [13] is: synthetic glycans, NCDI = no interaction at any concentration between 0.0078 μM and 2 μM, read-out: KD, rCR3.
The mark [14] stands for this setting: synthetic glycans, NCDI = no interaction at any concentration between 0.0078 μM and 2 μM.

T2 sequence (P05107 23-700, one chain of several): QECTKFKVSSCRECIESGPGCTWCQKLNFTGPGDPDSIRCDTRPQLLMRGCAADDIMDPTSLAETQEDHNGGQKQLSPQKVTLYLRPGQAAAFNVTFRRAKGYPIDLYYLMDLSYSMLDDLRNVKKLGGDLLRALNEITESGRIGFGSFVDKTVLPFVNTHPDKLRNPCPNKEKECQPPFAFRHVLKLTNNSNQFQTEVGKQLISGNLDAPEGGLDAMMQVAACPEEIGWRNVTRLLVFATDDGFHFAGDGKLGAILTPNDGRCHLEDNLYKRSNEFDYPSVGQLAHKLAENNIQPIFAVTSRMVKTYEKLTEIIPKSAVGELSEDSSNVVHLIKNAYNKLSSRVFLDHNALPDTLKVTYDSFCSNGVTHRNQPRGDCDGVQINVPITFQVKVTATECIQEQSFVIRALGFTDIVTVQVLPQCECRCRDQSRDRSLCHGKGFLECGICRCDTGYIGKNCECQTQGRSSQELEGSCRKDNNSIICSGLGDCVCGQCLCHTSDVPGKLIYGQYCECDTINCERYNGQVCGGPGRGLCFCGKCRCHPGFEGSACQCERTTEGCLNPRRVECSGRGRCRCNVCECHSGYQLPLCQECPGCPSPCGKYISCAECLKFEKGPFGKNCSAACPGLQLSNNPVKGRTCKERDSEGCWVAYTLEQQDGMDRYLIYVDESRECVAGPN

On to `OCC1OC(OC2C(O)C(O)OC(CO)C2O)C(O)C(O)C1O` (centres unmarked) [Galactobiose], for which the figures for the Kd in [1], in assay [2] and in assay [3] were 229 ± 73.1 nM, 68.7 ± 1.75 nM and 174 ± 45.1 nM, respectively.
Turning to `OC[C@H]1O[C@@H](O[C@H]2[C@H](O)[C@@H](O)[C@H](O)O[C@@H]2CO)[C@H](O)[C@@H](O)[C@H]1O` [Lactose], the figures for the Kd in [1] (setting [12]) and in assay [2] (setting [13]) were 117 ± 13.3 nM and 138 ± 33.7 nM, respectively.
The corresponding values for `CC(=O)NC1C(O)OC(CO)C(OC2OC(CO)C(O)C(OC3OC(CO)C(O)C(O)C3O)C2O)C1O` (centres unmarked) [Linear B-2 Trisaccharide] are 293 ± 13.1 nM and 44.8 ± 18.1 nM.
Regarding `CO[C@H]1O[C@H](CO)[C@H](O)[C@H](O)[C@H]1O` [Methyl-α-D-galactose], the Kd in assay [1] (setting [12]) was found to be 269 ± 85.1 nM; in assay [2] (setting [13]), 56.5 ± 19.8 nM; in assay [3], 118 ± 11.8 nM.
With `CC(=O)NC1C(O)OC(CO)C(OC2OC(CO)C(OC3OC(CO)C(O)C(O)C3O)C(O)C2O)C1O` (centres unmarked) [P1 Antigen], the dissociation constant (Kd) in assay [1] (setting [12]) turned out to be 202 ± 48.7 nM; in assay [2] (setting [13]), 48.3 ± 14.2 nM.
As for `OC[C@H]1O[C@@](CO)(O[C@H]2O[C@H](CO)[C@@H](O)[C@H](O)[C@H]2O)[C@@H](O)[C@@H]1O` [Sucrose], in [1] (setting [14]), the “KD, rI-domain” value is “did not bind and NCDI”. Also, in assay [4] (setting [14]), the “KD, rCR3” value is “did not bind and NCDI”. Also, the “KD, G2 Peptide” value was “NCDI” in assay [3] and “no concentration-dependent interaction” in assay [3] (listed as sucrose).
With `C[C@](N)(Cc1ccc(O)c(O)c1)C(=O)O` [methyldopa], the “Gonococcal adherence to Pex cells (fluorescence)” value (from here on “Gonococcal adherence to Pex cells”) in assay [5] is given as “decreased in a dose-dependent manner”; in assay [5] (listed as Methyldopa) it was “dose-dependent decrease”. Also, in assay [6], the “Gonococcal adherence to CHO-CR3 cells (fluorescence)” value is “decreased in a dose-dependent manner; also recorded: CR3- and dose-dependent reduction”. Also, the “Gonococcal adherence to CHO-neo cells (fluorescence)” value in assay [7] was “but not to CHO-neo cells”. Further, in [8], the Kd is 1.01 nM. Further, the “Blocking of the interaction of N. gonorrhoeae MS11 pilin with rCR3 or rI-domain” value in assay [9] is reported as “completely blocked”. Also, the “N. gonorrhoeae strain MS11 survival” value in assay [10] (24 h posttreatment, 100 pM to 100 μM) is “dose-dependent reductions”. Also, the “Numbers of viable gonococci, low-passage-number gonococcal isolates” value in assay [10] (24 h posttreatment, established Pex cell infections) is reported as “significant reductions”. Also, the “Efficacy in treating multidrug-resistant gonococci compared with ceftriaxone” value in assay [10] (panel of multidrug-resistant N. gonorrhoeae isolates) is reported as “more effective than ceftriaxone”. The “Effect on gonococcal viability in the absence of Pex cells (zone of inhibition)” value in [11] is recorded as “no effect; also recorded: neither carbamazepine nor methyldopa had an effect”.
`OCC1OC(OC2C(O)C(CO)OC(OC3C(CO)OC(OC4C(O)C(O)OC(CO)C4O)C(O)C3O)C2O)C(O)C(O)C1O` (stereo not drawn) [α1-3,β1-4,α1-3 Galactotetraose]: the Kd in assay [1] (setting [12]) is 320 ± 67.2 nM; in [4] (setting [13]) it was 26.2 ± 9.18 nM.
Consider `OC[C@H]1O[C@@H](O[C@H]2[C@H](O)[C@@H](O)[C@@H](O)O[C@@H]2CO)[C@H](O)[C@@H](O)[C@H]1O` [αLactose], for which the Kd was 202 ± 54.4 nM in [1] (setting [12]) and 79.8 ± 15 nM in assay [2] (setting [13]).
Regarding “H-CATFTAPGRTSTFSF-OH [P2, H-CATFTAPGRTSTFSF-OH]”, in [5], the “Gonococcal adherence to Pex cells” value is reported as “nonblocking”. In assay [6], the “Gonococcal adherence to CHO-CR3 cells (fluorescence)” value is on record as “nonblocking”.
Consider H-CNNPSSTVPHNVDFH-OH [P1], for which the “Gonococcal adherence to Pex cells” value in assay [5] is “nonblocking”. Further, the “Gonococcal adherence to CHO-CR3 cells (fluorescence)” value in assay [6] was “nonblocking”.
Consider “MS11 wild type: N. gonorrhoeae MS11 pilin modified with the Gal(α1-3)diNAcBac disaccharide glycan”, for which, in [4] (purified pilin 0.125-2 μM, NCDI = no concentration-dependent interaction (no binding of ≤2 μM), read-out: KD, Human CR3), the Kd was 907 ± 43.8 nM.
